Results from US20260022142A1, “MACROCYCLIC IMMUNOMODULATORS” (Bristol-Myers Squibb Company, priority 2022, published 2026).
Bridge positions count the residues as written; N and C are the ends. Square brackets hold non-standard residues; d marks the D form. Peptide text beside a SMILES is read from it. * marks the point of attachment. ξ: configuration not given here. Phe(4-CONH2) = NC(=O)c1ccc(C[C@H](N)C(=O)O)cc1; Bip = N[C@@H](Cc1ccc(-c2ccccc2)cc1)C(=O)O; Phe(3-Me) = Cc1cccc(C[C@H](N)C(=O)O)c1; Val(3-OH) = CC(C)(O)[C@H](N)C(=O)O; 4Pal = N[C@@H](Cc1ccncc1)C(=O)O; Cha = N[C@@H](CC1CCCCC1)C(=O)O; Thr(3ξ) = CC(O)[C@H](N)C(=O)O; Carboxymethyl = O=C(O)C*; Orn = NCCC[C@H](N)C(=O)O; Aun = NCCCCCCCCCCC(=O)O; Dab = NCC[C@H](N)C(=O)O; AEEA = NCCOCCOCC(=O)O

Molecular target: T1, PD-1/PD-L1 interaction (PE-labeled human PD-L1-Ig binding to Jurkat cell line over-expressing human PD-1) (Homo sapiens, UniProt Q15116)
T1 construct: expressed in transfected cells; host or cells: Jurkat
Experiment: Jurkat-PD-1 Cell Binding High-Content Screening Assay (CBA)
Format: cell-based
Details: Jurkat cell line over-expressing human PD-1; PE-labeled PD-L1-Ig 20 nM final; read-out: Jurkat hPD1-PDL1 IC50
In short: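 Binding of fluorescent PD-L1-Ig (phycoerythrin on Ig tag, 20 nM final, 1 h) measured by high-content imaging of fixed, Hoechst-counterstained Jurkat-hPD-1 cells. Compound added 2 h at 37° C beforehand, in DMEM with 10% fetal calf serum.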

T1 sequence (Q15116 25-288): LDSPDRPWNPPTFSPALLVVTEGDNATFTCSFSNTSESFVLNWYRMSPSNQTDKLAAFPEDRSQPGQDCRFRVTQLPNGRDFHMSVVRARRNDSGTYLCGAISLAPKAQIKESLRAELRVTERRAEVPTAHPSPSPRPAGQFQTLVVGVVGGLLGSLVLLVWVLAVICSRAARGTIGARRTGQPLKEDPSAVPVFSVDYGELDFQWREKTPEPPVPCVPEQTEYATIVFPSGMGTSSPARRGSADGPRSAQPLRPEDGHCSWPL

| Compound | IC50 [nM] |
| --- | --- |
| Cc1cccc(C[C@@H]2NC(=O)[C@H](CC(=O)O)NC(=O)[C@H](Cc3ccc(OCC(=O)O)cc3)NC(=O)[C@H](Cc3ccncc3)NC(=O)CSC[C@@H](C(=O)N[C@@H](CO)C(=O)NCCCCCCCCCCC(=O)O)NC(=O)[C@H](C(C)O)NC(=O)[C@H](C(C)(C)O)NC(=O)[C@H](CC3CCCCC3)NC(=O)[C@H](CCN)NC(=O)[C@@H](CC(C)C)NC(=O)[C@H](CCCN)NC(=O)[C@H](Cc3ccc(O)cc3)NC(=O)[C@H](Cc3ccc(-c4ccccc4)cc3)NC(=O)[C@H](Cc3ccc(C(N)=O)cc3)NC2=O)c1 (stereo partly drawn) [Compound 3726] ({CH2CO}-[4Pal]Y(Carboxymethyl)D[Phe(3-Me)][Phe(4-CONH2)][Bip]Y[Orn][dL][Dab][Cha][Val(3-OH)][Thr(3ξ)]CS[Aun]-OH; thioether N-14) | 13.1 |
| Cc1cccc(C[C@@H]2NC(=O)[C@H](CC(=O)O)NC(=O)[C@H](Cc3ccc(OCC(=O)O)cc3)NC(=O)[C@H](CCN)NC(=O)CSC[C@@H](C(=O)NCCOCCOCC(=O)NCCCCCCCCCCC(=O)O)NC(=O)[C@H](C(C)O)NC(=O)[C@H](C(C)(C)O)NC(=O)[C@H](CC3CCCCC3)NC(=O)[C@H](CCN)NC(=O)[C@@H](CC(C)C)NC(=O)[C@H](CCCN)NC(=O)[C@H](Cc3ccc(O)cc3)NC(=O)[C@H](Cc3ccc(-c4ccccc4)cc3)NC(=O)[C@H](Cc3ccc(C(N)=O)cc3)NC2=O)c1 (stereo partly drawn) [Compound 3727] ({CH2CO}-[Dab]Y(Carboxymethyl)D[Phe(3-Me)][Phe(4-CONH2)][Bip]Y[Orn][dL][Dab][Cha][Val(3-OH)][Thr(3ξ)]C[AEEA][Aun]-OH; thioether N-14) | 50.4 |
| Cc1cccc(C[C@@H]2NC(=O)[C@H](CC(=O)O)NC(=O)[C@H](Cc3ccc(OCC(=O)O)cc3)NC(=O)[C@H](Cc3ccncc3)NC(=O)CSC[C@@H](C(=O)N[C@@H](CCN)C(=O)NCCCCCCCCCCC(=O)O)NC(=O)[C@H](C(C)O)NC(=O)[C@H](C(C)(C)O)NC(=O)[C@H](CC3CCCCC3)NC(=O)[C@H](Cc3cnc[nH]3)NC(=O)[C@@H](CC(C)C)NC(=O)[C@H](CCCN)NC(=O)[C@H](Cc3ccc(O)cc3)NC(=O)[C@H](Cc3ccc(-c4ccccc4)cc3)NC(=O)[C@H](Cc3ccc(C(N)=O)cc3)NC2=O)c1 (stereo partly drawn) [Compound 3728] ({CH2CO}-[4Pal]Y(Carboxymethyl)D[Phe(3-Me)][Phe(4-CONH2)][Bip]Y[Orn][dL]H[Cha][Val(3-OH)][Thr(3ξ)]C[Dab][Aun]-OH; thioether N-14) | 25.6 |

Further molecules by falling IC50, results first:

| IC50 [nM] | Compound |
| --- | --- |
| 30.3 | Cc1cccc(C[C@@H]2NC(=O)[C@H](CC(=O)O)NC(=O)[C@H](Cc3ccc(OCC(=O)O)cc3)NC(=O)[C@H](C(C)O)NC(=O)CSC[C@@H](C(=O)N[C@@H](CCN)C(=O)NCCCCCCCCCCC(=O)O)NC(=O)[C@H](C(C)O)NC(=O)[C@H](C(C)(C)O)NC(=O)[C@H](CC3CCCCC3)NC(=O)[C@H](Cc3cnc[nH]3)NC(=O)[C@@H](CC(C)C)NC(=O)[C@H](CCCN)NC(=O)[C@H](Cc3ccc(O)cc3)NC(=O)[C@H](Cc3ccc(-c4ccccc4)cc3)NC(=O)[C@H](Cc3ccc(C(N)=O)cc3)NC2=O)c1 (stereo partly drawn) [Compound 3729] ({CH2CO}-[Thr(3ξ)]Y(Carboxymethyl)D[Phe(3-Me)][Phe(4-CONH2)][Bip]Y[Orn][dL]H[Cha][Val(3-OH)][Thr(3ξ)]C[Dab][Aun]-OH; thioether N-14) |
| 22.8 | Cc1cccc(C[C@@H]2NC(=O)[C@H](CC(=O)O)NC(=O)[C@H](Cc3ccc(OCC(=O)O)cc3)NC(=O)[C@H](Cc3ccncc3)NC(=O)CSC[C@@H](C(=O)NCCOCCOCC(=O)NCCCCCCCCCCC(=O)O)NC(=O)[C@H](C(C)O)NC(=O)[C@H](C(C)(C)O)NC(=O)[C@H](CC3CCCCC3)NC(=O)[C@H](CCN)NC(=O)[C@@H](CC(C)C)NC(=O)[C@H](CCCN)NC(=O)[C@H](Cc3ccc(O)cc3)NC(=O)[C@H](Cc3ccc(-c4ccccc4)cc3)NC(=O)[C@H](Cc3ccc(C(N)=O)cc3)NC2=O)c1 (stereo partly drawn) [Compound 3730] ({CH2CO}-[4Pal]Y(Carboxymethyl)D[Phe(3-Me)][Phe(4-CONH2)][Bip]Y[Orn][dL][Dab][Cha][Val(3-OH)][Thr(3ξ)]C[AEEA][Aun]-OH; thioether N-14) |
